Measured values taken from US11596636B2, “Tailored combinatorial epigenetic therapies for P53 gain-of-function tumors” (The Trustees of the University of Pennsylvania, priority 2014, dated 2023).

Legend:
[1] = test system: Hoxa cluster genes in AT-1 cells (MLL-AF9 leukemia cell line); experiment: HoxA5 and HoxA9 mRNA levels in AT-1 cells; format: cell-based, mouse; conditions: after 2 days of treatment, vs DMSO
Description: (§1) FIG. 15, comprising FIG. 15A through FIG. 15G, depicts the results of example experiments. (FIG. 15A) Chemical structure of ISC-30 compound [N,N′-bis(4-aminophenyl)-N,N′-dimethylethylenediamine]. (CID: 193110, NCI: 129674, Chemical formula: C16H22N4 Molecular weight: 270.37) (FIG. 15B) His-SUMO-MeninΔ460-519 (Menin) was titrated into wells containing fluorescence polarization buffer and FITC-MLL peptide (1.5 nM) to allow fluorescence polarization monitoring and calculation of the binding affinity. (FIG. 15C) Wild-type (WT) or Mutant (Mut) competitor MLL peptides were titrated into wells containing fluorescence polarization butter, His-SUMO-MeninΔ460-519 (5 nM), and FITC-MLL peptide (1.5 nM) and the inhibition of fluorescence polarization was monitored and utilized to normalize the ISC30 inhibition. All measurements were blanked by subtracting the background signal taken from wells containing only buffer. mP=millipolarization. (FIG. 15D) Peptide displacement assay measuring ISC-30 inhibition of menin-MLL1 interaction by the decrease in fluorescence polarization (FP) signal of a FITC labeled MLL1 peptide upon ISC-30 induced dissociation from menin. (FIG. 15E) HoxA5 and HoxA9 mRNA levels after 2 days of ISC-30 or DMSO (vehicle control) treatment in AT-1 cells (mouse MLL-AF9 leukemia cell line). (FIG. 15F) Growth analysis of AT-1 cells treated with DMSO or 10 μM ISC-30. […]

[2] = biological target: T1, menin-MLL1 interaction (His-SUMO-Menin-Δ460-519, FITC-MLL peptide) (Homo sapiens, UniProt O00255, DEL460-519); experiment: Fluorescence polarization competition assay, FITC-MLL peptide displacement from menin; format: binding; conditions: FITC-MLL peptide 1.5 nM, His-SUMO-Menin-Δ460-519 5 nM
T1 construct: made in house; host or cells: Rosetta (DE3-pLysS) E. coli
T1 sequence (O00255 with tags, fused parts or gaps DEL460-519): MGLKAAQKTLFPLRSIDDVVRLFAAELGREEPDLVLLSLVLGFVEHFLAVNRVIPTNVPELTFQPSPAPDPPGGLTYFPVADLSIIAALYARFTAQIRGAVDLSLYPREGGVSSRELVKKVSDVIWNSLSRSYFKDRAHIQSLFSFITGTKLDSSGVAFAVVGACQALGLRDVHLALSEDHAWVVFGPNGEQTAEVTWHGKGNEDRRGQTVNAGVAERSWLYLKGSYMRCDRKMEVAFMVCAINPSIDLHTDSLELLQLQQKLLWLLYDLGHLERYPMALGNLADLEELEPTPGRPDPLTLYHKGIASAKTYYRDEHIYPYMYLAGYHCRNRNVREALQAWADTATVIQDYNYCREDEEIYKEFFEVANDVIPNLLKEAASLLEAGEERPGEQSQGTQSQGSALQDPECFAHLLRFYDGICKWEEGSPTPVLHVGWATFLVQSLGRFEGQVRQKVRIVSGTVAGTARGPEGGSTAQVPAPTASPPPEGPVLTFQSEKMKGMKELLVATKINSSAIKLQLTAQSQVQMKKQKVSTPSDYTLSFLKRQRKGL
Description: as §1, with “menin.” for “menin. (FIG. 15E) HoxA5 and HoxA9 mRNA levels after 2 days of ISC-30 or DMSO (vehicle control) treatment in AT-1 cells (mouse MLL-AF9 leukemia cell line). (FIG. 15F) Growth analysis of AT-1 cells treated with DMSO or 10 μM ISC-30.”
ISC30 was titrated into the wells of a 384-well plate containing fluorescence polarization buffer (40 mM HEPES pH 7.9, 150 mM NaCl, 0.01% Triton-X-100, 10 mM 2-mercaptoethanol), FITC-MLL peptide (1.5 nM), and His-SUMO-Menin-Δ460-519 (5 nM). […]

[3] = test system: MDAH087 cells (p53 R248W, GOF p53); experiment: Growth curve analysis of LFS MDAH087 cells; format: cell-based, human; conditions: OICR-9429 2 μM or 4 μM, vs DMSO
Description: (§2) (FIG. 10A) Endogenous co-IP of Menin and MLL1 in LFS MDAH087 cells upon treatment of DMSO or different concentrations of ISC-30.
(§3) Li-Fraumeni Syndrome cell lines MDAH087 and MDAH041 were obtained from Dr. Michael A. Tainsky (Wayne State University, Detroit, Mich.) as a kind gift, and were cultured at 3% oxygen, in standard tissue culture medium.
(§4) 200,000 cells were seeded on 950 mm^2 surface area (one well of 6-well plate) on Day 0. Cell number was measured every two days with Countess Automated Cell Counter (Life Technologies) following its standard procedure, and then 200,000 cells were plated back for the next counting. For shRNA mediated knockdown experiments, cells were seeded seven days after the initial infection of shRNA-containing lentivirus, during which puromycin selection was completed and cells were already put back to normal growth medium. For small compound inhibitor treatment experiments, inhibitors were added on Day 0 as cells were seeded and refreshed every other day as cells were counted and plated back.

[4] = test system: MDAH041 cells (p53 null); experiment: Growth curve analysis of LFS MDAH041 cells; format: cell-based, human; conditions: OICR-9429 2 μM or 4 μM, vs DMSO
Description: as §2, §3, §4

[5] = biological target: T2, menin-MLL1 interaction in MDAH041 cells (p53 null) (Homo sapiens, UniProt O00255); experiment: Endogenous co-IP of Menin and MLL1 in LFS MDAH041 cells; format: cell-based; conditions: different concentrations, vs DMSO
T2 construct: endogenous in cells; host or cells: LFS MDAH087 (p53 R248W) and MDAH041 (p53 null) cells
T2 sequence (O00255 1-610): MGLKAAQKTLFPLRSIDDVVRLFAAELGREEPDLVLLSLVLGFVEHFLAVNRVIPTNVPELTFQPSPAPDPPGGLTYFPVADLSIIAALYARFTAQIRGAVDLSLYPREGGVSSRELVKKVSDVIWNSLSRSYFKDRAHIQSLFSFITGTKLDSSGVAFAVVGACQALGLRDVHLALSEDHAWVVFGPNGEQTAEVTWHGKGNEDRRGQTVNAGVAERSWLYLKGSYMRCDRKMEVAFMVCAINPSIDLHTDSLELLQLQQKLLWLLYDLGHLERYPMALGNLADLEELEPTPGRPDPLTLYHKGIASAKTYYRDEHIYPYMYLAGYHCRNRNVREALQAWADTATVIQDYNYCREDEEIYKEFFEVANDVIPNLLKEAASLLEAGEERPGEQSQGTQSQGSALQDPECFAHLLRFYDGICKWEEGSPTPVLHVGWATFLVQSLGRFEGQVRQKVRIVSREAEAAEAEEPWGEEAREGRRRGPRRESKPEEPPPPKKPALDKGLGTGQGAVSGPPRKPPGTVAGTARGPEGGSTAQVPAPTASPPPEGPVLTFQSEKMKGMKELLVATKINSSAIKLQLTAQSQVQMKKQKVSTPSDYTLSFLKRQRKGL

[6] = biological target: T3, menin-MLL1 interaction in MDAH087 cells (p53 GOF) (Homo sapiens, UniProt O00255); experiment: Endogenous co-IP of Menin and MLL1 in LFS MDAH087 cells; format: cell-based; conditions: different concentrations, vs DMSO
T3 construct: endogenous in cells; host or cells: LFS MDAH087 (p53 R248W) and MDAH041 (p53 null) cells
T3 sequence (O00255 1-610): T2 sequence (O00255 1-610)
Description: (FIG. 10A) Endogenous co-IP of Menin and MLL1 in LFS MDAH087 cells upon treatment of DMSO or different concentrations of ISC-30. (FIG. 10B) & (FIG. 10C) Growth curve analysis of LFS (FIG. 10B) MDAH087 and (FIG. 10C) MDAH041 cells treated with DMSO, […] ISC-30 Menin inhibitor. (FIG. 10D) & (FIG. 10E) Growth curve analysis of LFS (FIG. 10D) MDAH087 and (FIG. 10E) MDAH041 cells treated with DMSO, […], or 20 μM MI-2-2 Menin inhibitor. (FIG. 10F) and (FIG. 10G) Growth curve analysis of LFS (FIG. 10F) MDAH087 and (FIG. 10G) MDAH041 cells treated with DMSO, 2 μM, or 4 μM OICR-9429 WDR5 inhibitor.
Flag tagged ETS2 protein was expressed in HEK293T cells, which was then subjected to immunoprecipitation with Flag antibody conjugated Dynabeads. Then after washes, HA tagged WT or GOF p53 (generated by in vitro translation method (Thermo #88881)) was added to co-immunoprecipitate with Flag-ETS2. Endogenous co-IP experiments were performed in buffer containing: 20 mM Tris, pH 8.0, 137 mM NaCl, 1 mM MgCl2, 1 mM CaCl2, 1% NP-40, 10% glycerol, plus complete protease and phosphatase inhibitor (without EDTA), plus 12.5 U/ml benzonase (Novagen, 70746).

[7] = test system: AT-1 cells (MLL-AF9 leukemia cell line); experiment: Growth analysis of AT-1 cells; format: cell-based, mouse; conditions: 10 μM ISC-30 vs DMSO
Description: as §1, with “All measurements were blanked by subtracting the background signal taken from wells containing only buffer. mP=millipolarization.” left out, “menin.” for “menin. (FIG. 15E) HoxA5 and HoxA9 mRNA levels after 2 days of ISC-30 or DMSO (vehicle control) treatment in AT-1 cells (mouse MLL-AF9 leukemia cell line). (FIG. 15F) Growth analysis of AT-1 cells treated with DMSO or 10 μM ISC-30.”
200,000 cells were seeded on 950 mm^2 surface area (one well of 6-well plate) on Day 0. Cell number was measured every two days with Countess Automated Cell Counter (Life Technologies) following its standard procedure, and then 200,000 cells were plated back for the next counting. […]

[8] = test system: mll1 in MCF7 cells (WT p53); experiment: mll1 mRNA (RT-qPCR) and MLL1 protein (western blot) upon Nutlin treatment in MCF7 cells; conditions: Nutlin vs DMSO
From the text: (FIG. 13B) RT-qPCR analysis of mRNA expression level changes upon DMSO or Nutlin treatment in MCF7 cells. (FIG. 13C) Western blot analysis of MLL1 protein levels upon DMSO or Nutlin treatment in MCF7 cells.

[9] = test system: H3K9ac in MDA468 cells (p53 R273H); experiment: Western blot of H3K9ac in MDA468 cells with mutant p53 knockdown; format: cell-based, human; conditions: etoposide treatment
From the text: FIG. 4A depicts western blots depicting changes in histone modification (H3K4me3 and H3K9ac) in MDA468 cell line in response to control or p53 knockdown. FIG. 4B depicts the change in the abundance of H3K4me3 and H3K9ac following p53 GOF mutant knockdown, as well as the functional implication that the Rho and Ras pathways are most affected by p53 GOF mutant knockdown.
Experiments were next conducted to evaluate the functional outcomes of the p53 GOF regulation of histone modification. FIG. 4A (left) depicts a Western blot analysis of the MDA468 cell line in response to control or p53 knockdown. It is shown that H3K9Ac decreases in response to knockdown of mutant p53, but no other histone modifications appear to be affected.

## CN(CCN(C)c1ccc(N)cc1)c1ccc(N)cc1 [ISC-30, N,N′-bis(4-aminophenyl)-N,N′-dimethylethylenediamine]
[1]
  expression of Hoxa cluster genes (HoxA5 and HoxA9 mRNA levels): decreased expression of Hoxa cluster genes
[2]
  concentration at which the compound started to inhibit menin-MLL1 interaction: approximately 2 μM
[2]; normalized IC50, read-out: IC50, inhibition of menin-MLL1 interaction
  IC50: 32 µM
[3]
  GOF p53 cell growth: dose-dependent inhibition
[4]
  p53 null cell growth: very little effect
[5]
  menin-MLL1 interaction at endogenous levels (co-IP): blocked menin-MLL1 interaction at endogenous levels in a dose-dependent manner
[6]
  menin-MLL1 interaction at endogenous levels (co-IP): blocked menin-MLL1 interaction at endogenous levels in a dose-dependent manner
[7]
  growth of AT-1 cells: reduced

## CC1(C)CN=C(N2CCN(c3ncnc4sc(CC(F)(F)F)cc34)CC2)S1 [MI-2-2]
[3]
  GOF p53 cell growth: dose-dependent inhibition

## COc1ccc(C2=NC(c3ccc(Cl)cc3)C(c3ccc(Cl)cc3)N2C(=O)N2CCNC(=O)C2)c(OC(C)C)c1 (stereo not shown) [Nutlin]
[8]
  mll1 expression upon stabilization and elevation of WT p53 levels: not upregulated

## CN1CCN(c2ccc(-c3cccc(CN4CCOCC4)c3)cc2NC(=O)c2c[nH]c(=O)cc2C(F)(F)F)CC1 [OICR-9429]
[3]
  GOF p53 cell growth: dose-dependent inhibition
[4]
  p53 null cell growth: little effect

## COc1cc([C@@H]2c3cc4c(cc3[C@@H](O[C@@H]3O[C@@H]5CO[C@@H](C)O[C@H]5[C@H](O)[C@H]3O)[C@H]3COC(=O)[C@H]23)OCO4)cc(OC)c1O [etoposide]
[9]
  loss of H3K9ac in response to knockdown of mutant p53: not affected
